Patent US8598173B2, “1-[(6,7-substituted alkoxyquinoxalinyl)aminocarbonyl]-4-(hetero)arylpiperazine derivatives for treating tumors” (Korea Research Institute of Chemical Technology, priority 2004, dated 2013)
Read-outs that look alike come from different tables or passages of the source.

What was measured:
MDA-MB-231 (breast) = experiment: Cell growth inhibition assay (SRB), MDA-MB-231; format: cell-based, human; details: Homo sapiens, SRB method, 96 hours incubation
Procedure: (§1) OVCAR-3, MCF-7, PC3, HepG2, A549, HT-29 and MKN-45 were grown in RPMI1640 medium (Invitrogen, Carlsbad, Calif.) supplemented with 10% fetal bovine serum (‘FBS’), 1 mM sodium pyruvate, 10 mM HEPES and 100 U/ml penicillin and […] streptomycin (‘P/S’). MDA-MB-231, HCT116, UMRC2, Caki-1, PANC-1 and HEK293 cells were maintained in Dulbecco's modified Eagle's medium (‘DMEM’, Invitrogen) supplemented with 10% FBS, P/S, 10 mM HEPES and 2 mM L-glutamine. HUVEC was maintained in M199 supplemented with basic fibroblast growth factor (‘bFGF’) […] and FBS 20%. All cells were incubated at 37° C. under humidified 5% CO2.
(§2) The growth inhibition of the substituted quinoxalin-piperazine compounds against a variety of human tumor cells was evaluated. The relative importance of particular substituent groups on the compounds was also studied. The substituted piperazine derivative compounds, prepared as described above, were tested, along with DMSO as a control.
(§3) The growth inhibition assay of various compounds against human tumor cell lines was performed using the Sulforhodamine B (‘SRB’) method (Skehan et al., J. National Cancer Institute, 1990, 82, 1107-1112). […] Triplicate wells were used for each treatment. The cells were incubated with the various compounds for 96 hours at 37° C. in a humidified 5% CO2 atmosphere. After 96-hour incubation, cells were fixed with 10% trichloroacetic acid (‘TCA’), incubated for 1 hour at 4° C., and washed 3 times with tap water. Subsequently cells were stained with 0.4% sulforhodamine B in 1% acetic acid for 30 minutes, washed 4 times with 1% acetic acid, and air-dried again. After 5 minutes agitation in 10 mM Tris solution, the absorbance of each well was measured at 530 nm using Benchmark Plus Microplate reader (Bio-Rad Laboratories, Hercules, Calif.).
(§4) To translate the OD530 values into the number of live cells in each well, the OD530 values were compared to those on standard OD530-versus-cell number curves generated for each cell line. The percent survival was calculated using the formula: % Survival=live cell number[test]/live cell number[control]×100
(§5) The IC50 values were calculated by non-linear regression analysis.

UMRC2 (kidney) = experiment: Cell growth inhibition assay (SRB), UMRC2; format: cell-based, human; details: Homo sapiens, SRB method, 96 hours incubation
Procedure: as §1, §2, §3, §4, §5

PANC-1 (pancreas) = experiment: Cell growth inhibition assay (SRB), PANC-1; format: cell-based, human; details: Homo sapiens, SRB method, 96 hours incubation
Procedure: as §1, §2, §3, §4, §5

HT-29 (colon) = experiment: Cell growth inhibition assay (SRB), HT-29; format: cell-based; details: Homo sapiens, SRB method, 96 hours incubation
Procedure: as §1, §2, §3, §4, §5

A549 (lung) = experiment: Cell growth inhibition assay (SRB), A549; format: cell-based; details: Homo sapiens, SRB method, 96 hours incubation
Procedure: as §1, §2, §3, §4, §5

[1] = system: HEK293 (human embryonic kidney); experiment: Cell growth inhibition assay (SRB), HEK293; format: cell-based; details: SRB method, 96 hours incubation
Procedure: as §1, §2, §3, §4, §5

[2] = system: Huvec (human umbilical vein endothelial cells); experiment: Cell growth inhibition assay (SRB), Huvec; format: cell-based; details: SRB method, 96 hours incubation
Procedure: as §1, §2, §3, §4, §5

SK-OV-3 (ovary) = experiment: Cell growth inhibition assay (SRB), SK-OV-3; format: cell-based; details: Homo sapiens, SRB method, 96 hours incubation
Procedure: as §1, §2, §3, §4, §5

MKN-45 (stomach) = experiment: Cell growth inhibition assay (SRB), MKN-45; format: cell-based; details: Homo sapiens; SRB method, 96 hours incubation, MKN-45 (stomach); read-out: IC50, MKN-45
Procedure: as §1, §2, §3, §4, §5

HepG2 (liver) = experiment: Cell growth inhibition assay (SRB), HepG2; format: cell-based; details: Homo sapiens; SRB method, 96 hours incubation, HepG2 (liver); read-out: IC50, HepG2
Procedure: as §1, §2, §3, §4, §5

HCT116 (colon) = experiment: Cell growth inhibition assay (SRB), HCT116; format: cell-based; details: Homo sapiens, HCT-116; SRB method, 96 hours incubation, HCT116 (colon); read-out: IC50, HCT116
Procedure: as §1, §2, §3, §4, §5

PC3 (prostate) = experiment: Cell growth inhibition assay (SRB), PC3; format: cell-based; details: Homo sapiens; SRB method, 96 hours incubation, PC3 (prostate); read-out: IC50, PC3
Procedure: as §1, §2, §3, §4, §5

OVCAR-3 (ovary) = experiment: Cell growth inhibition assay (SRB), OVCAR-3; format: cell-based; details: Homo sapiens; SRB method, 96 hours incubation, OVCAR-3 (ovary); read-out: IC50, OVCAR-3
Procedure: as §1, §2, §3, §4, §5

[3] = system: MCF-7 (breast, hormone-dependent); experiment: Cell growth inhibition assay (SRB), MCF-7; format: cell-based; details: Homo sapiens, MCF7; SRB method, 96 hours incubation, MCF-7 (breast, hormone-dependent); read-out: IC50, MCF-7
Procedure: as §1, §2, §3, §4, §5

Caki-1 (kidney) = experiment: Cell growth inhibition assay (SRB), Caki-1; format: cell-based; details: Homo sapiens; SRB method, 96 hours incubation, Caki-1 (kidney); read-out: IC50, Caki-1
Procedure: as §1, §2, §3, §4, §5

[4] = MDA-MB-231 (breast), read-out: IC50, MDA-MB-231
[5] = UMRC2 (kidney), read-out: IC50, UMRC2
[6] = PANC-1 (pancreas), read-out: IC50, PANC-1
[7] = HT-29 (colon), read-out: IC50, HT-29
[8] = A549 (lung), read-out: IC50, A549
[9] = HEK293 (human embryonic kidney), read-out: IC50, HEK293
[10] = SK-OV-3 (ovary), read-out: IC50, SK-OV-3

SMILES | IC50 (MDA-MB-231 (breast); [4]) | IC50 (UMRC2 (kidney); [5]) | IC50 (PANC-1 (pancreas); [6]) | IC50 (MKN-45 (stomach)) | IC50 (HepG2 (liver)) | IC50 (HT-29 (colon); [7]) | IC50 (HCT116 (colon)) | IC50 (PC3 (prostate)) | IC50 (OVCAR-3 (ovary)) | IC50 [3] | IC50 (Caki-1 (kidney)) | IC50 (A549 (lung); [8]) | IC50 [1, 9] | IC50 ([2]; read-out: IC50, Huvec) | IC50 (SK-OV-3 (ovary); [10]) | also measured
COc1cccc(N2CCN(C(=O)Nc3nc4cc(C)ccc4nc3OC)CC2)c1 [Compound 45, 1-[(2-Methoxy-6-methylquinoxalin-3-yl)aminocarbonyl]-4-(3-methoxyphenyl)piperazine] | – | – | – | – | – | – | – | – | – | – | – | – | – | – | – | IC50 (MDA-MB-231 (breast); MDA-MB-231, read-out: Inhibition of cell growth (IC50, μM) by quinoxaline-piperazine compounds against human cancer cell lines: MDA-MB-231): 0.27 µM; IC50 (UMRC2 (kidney); UMRC2, read-out: Inhibition of cell growth (IC50, μM) by quinoxaline-piperazine compounds against human cancer cell lines: UMRC2): 0.45 µM; IC50 (PANC-1 (pancreas); PANC-1, read-out: Inhibition of cell growth (IC50, μM) by quinoxaline-piperazine compounds against human cancer cell lines: PANC-1): 1.31 µM; IC50 (HT-29 (colon); HT-29, HT29, read-out: Inhibition of cell growth (IC50, μM) by quinoxaline-piperazine compounds against human cancer cell lines: HT29): 0.05 µM; IC50 (A549 (lung); A549, read-out: Inhibition of cell growth (IC50, μM) by quinoxaline-piperazine compounds against human cancer cell lines: A549): 0.25 µM; IC50 ([1]; Homo sapiens, Hek293, read-out: Inhibition of cell growth (IC50, μM) by quinoxaline-piperazine compounds against human cancer cell lines: Hek293): 0.5 µM; IC50 ([2]; read-out: Inhibition of cell growth (IC50, μM) by quinoxaline-piperazine compounds against human cancer cell lines: Huvec): 0.5 µM; IC50 (SK-OV-3 (ovary); SK-OV-3, read-out: Inhibition of cell growth (IC50, μM) by quinoxaline-piperazine compounds against human cancer cell lines: SK-OV-3): 1 µM
COc1nc2cc(F)ccc2nc1NC(=O)N1CCN(c2cc(C)cc(C)c2)CC1 [Compound 94, 1-[(6-Fluoro-3-methoxyquinoxalin-2-yl)aminocarbonyl]-4-(3,5-dimethylphenyl)piperazine] | 0.41 µM | 0.32 µM | 0.56 µM | 250 nM | 480 nM | 0.89 µM | 400 nM | 700 nM | 290 nM | 360 nM | 330 nM | 0.42 µM | 0.57 µM | 0.16 µM | 0.5 µM | –
COc1cc(OC)cc(N2CCN(C(=O)Nc3nc4ccc(Cl)cc4nc3OC)CC2)c1 [Compound 110, 1-[(6-Chloro-3-methoxyquinoxalin-2-yl)aminocarbonyl]-4-(3,5-dimethoxyphenyl)piperazine] | 0.18 µM | 0.21 µM | 0.28 µM | 200 nM | 210 nM | 0.25 µM | 230 nM | 270 nM | 130 nM | 210 nM | 180 nM | 0.24 µM | – | – | – | –
COc1nc2cc(Cl)ccc2nc1NC(=O)N1CCN(c2cc(C)cc(C)c2)CC1 [Compound 115, 1-[(6-Chloro-3-methoxyquinoxalin-2-yl)aminocarbonyl]-4-(3,5-dimethylphenyl)piperazine] | 0.13 µM | 0.11 µM | 0.17 µM | 430 nM | 410 nM | 0.46 µM | 450 nM | 620 nM | 310 nM | 450 nM | 310 nM | 0.59 µM | 0.5 µM | 0.52 µM | 0.5 µM | –
COc1cc(OC)cc(N2CCN(C(=O)Nc3nc4ccc(C)cc4nc3OC)CC2)c1 [Compound 131, 1-[(3-Methoxy-6-methylquinoxalin-2-yl)aminocarbonyl]-4-(3,5-dimethoxyphenyl)piperazine] | 0.16 µM | 0.23 µM | 0.36 µM | 220 nM | 230 nM | 0.34 µM | 250 nM | 350 nM | 140 nM | 240 nM | 190 nM | 0.24 µM | – | – | – | –
COc1nc2cc(C)ccc2nc1NC(=O)N1CCN(c2cc(C)cc(C)c2)CC1 [Compound 136, 1-[(3-Methoxy-6-methylquinoxalin-2-yl)aminocarbonyl]-4-(3,5-dimethylphenyl)piperazine] | 0.045 µM | 0.057 µM | 0.28 µM | 180 nM | 190 nM | 0.24 µM | 200 nM | 250 nM | 140 nM | 210 nM | 130 nM | 0.21 µM | 0.24 µM | 0.15 µM | 0.1 µM | –
COc1ccc2nc(NC(=O)N3CCN(c4cc(C)cc(C)c4)CC3)c(OC)nc2c1 [Compound 157, 1-[(3,6-Dimethoxyquinoxalin-2-yl)aminocarbonyl]-4-(3,5-dimethylphenyl)piperazine] | 0.41 µM | 0.27 µM | 0.47 µM | 270 nM | 560 nM | 0.78 µM | 380 nM | 580 nM | 290 nM | 210 nM | 300 nM | 2.5 µM | 0.53 µM | 0.15 µM | 0.5 µM | –
